Reference: US4927922A, “7β-(substituted)amino-3-substituted cephalosporanic acids and esters” (American Cyanamid Company, priority 1988, dated 1990)
In brackets after ≈: the same amount, converted by molar mass. Several values for one entry are separate records, joined by “and”; a condition that tells them apart may be missing. Equal entries are not always repeated. Where two headings read alike, the source gives them in different places.

Key:
Assay in all cases: in vitro agar dilution test (MIC)
Assay type in all cases: cell-based
Pseudomonas 12-4-4 = conditions: Mueller-Hinton agar
Method: (§1) The compounds of the present invention are active antibacterial agents as established in the in vitro agar dilution test using Mueller-Hinton agar. The test compounds were dissolved in a mixture of dimethyl sulfoxide and aqueous sodium bicarbonate and applied as 1 ml of drug solution plus 9 ml of agar per plate. The innoculum was a 5 hour TSB shake culture diluted to 10^-2 with Mueller-Hinton broth and applied to the plates with a Steers' Replicator.
(§2) The results of this test on representative compounds of this invention (identified by Example Number) against a variety of microorganisms appear in Tables I and II in terms of minimal inhibitory concentration (MIC) in mcg/ml together with Cefotaxime, Cephalothin and Ampicillin as positive controls.

Proteus rettgheri K 77-6 = conditions: Mueller-Hinton agar
Method: as §1, §2

Pseudomonas SSC 78-13 = conditions: SSC7813, Mueller-Hinton agar
Method: as §1, §2

[1] = tested on: Providencia stuarti K 81-29; conditions: K8129, Mueller-Hinton agar
Method: as §1, §2

[2] = tested on: Enterobacter aerogenes STFD 79-14; conditions: Klebsiella aerogenes, STFD7914, Enterobacter aerogenes STFD 79-14; Mueller-Hinton agar
Method: as §1, §2

Staphylococcus Smith = conditions: Mueller-Hinton agar, Table I
Method: as §1, §2

[3] = tested on: Pseudomonas aeruginosa ATCC 27853; conditions: Mueller-Hinton agar
Method: as §1, §2

Proteus rettgheri N 76-1 = conditions: Mueller-Hinton agar
Method: as §1, §2

Enterococcus OSU 75-1 = conditions: Mueller-Hinton agar
Method: as §1, §2

[4] = tested on: Staphylococcus FU 79-19-2β^+; conditions: Mueller-Hinton agar
Method: as §1, §2

[5] = tested on: Providencia stuarti SSC 80-78; conditions: SSC8078, Mueller-Hinton agar
Method: as §1, §2

Salmonella SSC 79-57 = conditions: SSC7957, Mueller-Hinton agar
Method: as §1, §2

Acinetobacter STFD 79-17 = conditions: Mueller-Hinton agar
Method: as §1, §2

[6] = tested on: Salmonella ariz. QHC 77-3; conditions: Mueller-Hinton agar
Method: as §1, §2

Proteus morganii K 79-25 = conditions: Morganella morganii, K7925, Proteus morganii K 79-25; Mueller-Hinton agar
Method: as §1, §2

[7] = tested on: Escherichia coli STFD 79-20; conditions: STFD7920, Escherichia coli STFD 79-20, Mueller-Hinton agar
Method: as §1, §2

Klebsiella pneumoniae AD = conditions: Mueller-Hinton agar, Table I
Method: as §1, §2

[8] = tested on: Escherichia coli ESS 22-31; conditions: ESS2231, Mueller-Hinton agar
Method: as §1, §2

Klebsiella STFD 79-6 = conditions: STFD796, Klebsiella STFD 79-6, Mueller-Hinton agar
Method: as §1, §2

[9] = tested on: Staphylococcus ATCC 25923; conditions: ATCC25923, Staphylococcus ATCC 25923, Mueller-Hinton agar, Table I
Method: as §1, §2

Serratia QHC 77-2 = conditions: QHC772, Serratia QHC 77-2, Mueller-Hinton agar
Method: as §1, §2

[10] = tested on: Escherichia coli ATCC 25922; conditions: ATCC25922, Escherichia coli ATCC 25922, Mueller-Hinton agar, Table I
Method: as §1, §2

Klebsiella SSC 78-1 = conditions: SSC781, Klebsiella SSC 78-1, Mueller-Hinton agar
Method: as §1, §2

Acinetobacter K 77-1 = conditions: K771, Acinetobacter K 77-1, Mueller-Hinton agar
Method: as §1, §2

[11] = tested on: Enterobacter cloacae K 79-16; conditions: K7916, Enterobacter cloacae K 79-16, Mueller-Hinton agar
Method: as §1, §2

[12] = tested on: Staphylococcus SSC 79-18β^-; conditions: Mueller-Hinton agar
Method: as §1, §2

Serratia TUL 78-15 = conditions: TUL7815, Serratia TUL 78-15, Mueller-Hinton agar
Method: as §1, §2

Escherichia coli 311 = conditions: Escherichia coli, 311, Escherichia coli 311; Mueller-Hinton agar
Method: as §1, §2

Enterococcus SM 77-15 = conditions: SM7715, Enterococcus SM 77-15, Mueller-Hinton agar
Method: as §1, §2

[13] = tested on: Micrococcus lutea PCI 1001; conditions: PCI1001, Micrococcus lutea PCI 1001, Mueller-Hinton agar
Method: as §1, §2

[14] = Pseudomonas, 1244, Pseudomonas 12-4-4, read-out: MIC
[15] = Pseudomonas aeruginosa, ATCC27853, Pseudomonas aeruginosa ATCC 27853, read-out: MIC
[16] = Enterococcus, OSU751, Enterococcus OSU 75-1, read-out: MIC
[17] = Acinetobacter, STFD7917, Acinetobacter STFD 79-17, read-out: MIC

| SMILES | MIC (Pseudomonas 12-4-4; [14]) | MIC (Pseudomonas SSC 78-13) | MIC [2] | MIC (Staphylococcus Smith; Staphylococcus, read-out: MIC) | MIC [3, 15] | MIC (Proteus rettgheri N 76-1) | MIC (Enterococcus OSU 75-1; [16]) | MIC ([4]; Staphylococcus, read-out: MIC) | MIC (Salmonella SSC 79-57) | MIC (Acinetobacter STFD 79-17; [17]) | MIC [6] | MIC (Proteus morganii K 79-25) | MIC [7] | MIC (Klebsiella pneumoniae AD) | MIC [8] | MIC (Klebsiella STFD 79-6) | MIC [9] | MIC (Serratia QHC 77-2) | MIC [10] | MIC (Klebsiella SSC 78-1) | other results |
| --- | --- | --- | --- | --- | --- | --- | --- | --- | --- | --- | --- | --- | --- | --- | --- | --- | --- | --- | --- | --- | --- |
| CO/N=C(\C(=O)N[C@@H]1C(=O)N2C(C(=O)O)=C(COC(C)=O)CS[C@H]12)c1csc(N)n1 [Cefotaxime, 3-[(acetyloxy)methyl]-7β-[[(2-amino-4-thiazolyl)(methoxyimino)acetyl]amino]-8-oxo-5-thia-1-azabicyclo[4.2.0]oct-2-ene-2-carboxylic acid, reference compound] | 16 µg/mL (≈ 35.1 µM) | 32 µg/mL (≈ 70.3 µM) | 0.03 µg/mL (≈ 0.0659 µM) | 1 µg/mL (≈ 2.2 µM) | 16 µg/mL (≈ 35.1 µM) | ≤ 0.015 µg/mL | 128 µg/mL (≈ 281 µM) | 4 µg/mL (≈ 8.78 µM) | 0.25 µg/mL (≈ 0.549 µM) | 8 µg/mL (≈ 17.6 µM) |  |  |  |  |  |  |  |  |  |  | MIC (Pseudomonas 12-4-4; Pseudomonas 12-4-4): 8 µg/mL (≈ 17.6 µM); MIC (Proteus rettgheri K 77-6): ≤ 0.06 µg/mL; MIC [1]: 0.25 µg/mL (≈ 0.549 µM); MIC (Staphylococcus Smith): 2 µg/mL (≈ 4.39 µM); MIC ([3]; Pseudomonas aeruginosa ATCC 27853): 32 µg/mL (≈ 70.3 µM); MIC (Enterococcus OSU 75-1; Enterococcus OSU 75-1): 64 µg/mL and > 128 µg/mL; MIC [4]: 8 µg/mL (≈ 17.6 µM); MIC [5]: ≤ 0.06 µg/mL; MIC (Acinetobacter STFD 79-17; Acinetobacter STFD 79-17): 16 µg/mL (≈ 35.1 µM) |
| CO/N=C(\C(=O)N[C@@H]1C(=O)N2C(C(=O)O)=C(CSc3nnsc3-c3ccccc3)CS[C@H]12)c1csc(N)n1 [Example 1, (Z)-7-[[(2-Amino-4-thiazolyl)(methoxyimino)acetyl]amino]-8-oxo-3-[[(5-phenyl-1,2,3-thiadiazol-4-yl)thio]mehtyl]-5-thia-1-azabicyclo[4.2.0]oct-2-ene-2-carboxylic acid] | > 128 µg/mL | 128 µg/mL (≈ 217 µM) | 1 µg/mL (≈ 1.7 µM) | 1 µg/mL (≈ 1.7 µM) | 128 µg/mL (≈ 217 µM) | ≤ 0.015 µg/mL | 128 µg/mL (≈ 217 µM) | 4 µg/mL (≈ 6.78 µM) | 4 µg/mL (≈ 6.78 µM) | 16 µg/mL (≈ 27.1 µM) | 1 µg/mL (≈ 1.7 µM) | 0.5 µg/mL (≈ 0.848 µM) | 0.5 µg/mL (≈ 0.848 µM) | 0.25 µg/mL (≈ 0.424 µM) | ≤ 0.015 µg/mL | 0.5 µg/mL (≈ 0.848 µM) | 2 µg/mL (≈ 3.39 µM) | 8 µg/mL (≈ 13.6 µM) | 0.12 µg/mL (≈ 0.203 µM) | 0.5 µg/mL (≈ 0.848 µM) | MIC (Acinetobacter K 77-1): 4 µg/mL (≈ 6.78 µM); MIC [11]: 4 µg/mL (≈ 6.78 µM); MIC [12]: 1 µg/mL (≈ 1.7 µM); MIC (Serratia TUL 78-15): 8 µg/mL (≈ 13.6 µM); MIC (Escherichia coli 311): 0.5 µg/mL (≈ 0.848 µM); MIC (Enterococcus SM 77-15): 64 µg/mL (≈ 109 µM) |
| CO/N=C(\C(=O)N[C@@H]1C(=O)N2C(C(=O)O)=C(CSc3nnsc3-c3ccc(C(C)(C)C)cc3)CS[C@H]12)c1csc(N)n1 [Example 2, (Z)-7-[[(2-Amino-4-thiazolyl)(methoxyimino)acetyl]amino]-3-[[[5-[4-(1,1-dimethylethyl)phenyl]-1,2,3-thiadiazol-4-yl]thio]methyl]-8-oxo-5-thia-1-azabicyclo-[4.2.0]oct-2-ene-2-carboxylic acid] | > 256 µg/mL | > 256 µg/mL | 0.5 µg/mL (≈ 0.774 µM) | 8 µg/mL (≈ 12.4 µM) | > 256 µg/mL | ≤ 0.03 µg/mL | 256 µg/mL (≈ 396 µM) | 32 µg/mL (≈ 49.5 µM) | 4 µg/mL (≈ 6.19 µM) | 128 µg/mL (≈ 198 µM) | 1 µg/mL (≈ 1.55 µM) | 0.5 µg/mL (≈ 0.774 µM) | 0.25 µg/mL (≈ 0.387 µM) | 0.06 µg/mL (≈ 0.0929 µM) | ≤ 0.03 µg/mL | 0.06 µg/mL (≈ 0.0929 µM) | 16 µg/mL (≈ 24.8 µM) | 32 µg/mL (≈ 49.5 µM) | 0.06 µg/mL (≈ 0.0929 µM) | 0.06 µg/mL (≈ 0.0929 µM) | MIC [13]: 0.06 µg/mL (≈ 0.0929 µM); MIC (Acinetobacter K 77-1): 16 µg/mL (≈ 24.8 µM); MIC [11]: 2 µg/mL (≈ 3.1 µM); MIC [12]: 8 µg/mL (≈ 12.4 µM); MIC (Serratia TUL 78-15): 32 µg/mL (≈ 49.5 µM); MIC (Escherichia coli 311): 0.25 µg/mL (≈ 0.387 µM); MIC (Enterococcus SM 77-15): 256 µg/mL (≈ 396 µM) |
| CO/N=C(\C(=O)N[C@@H]1C(=O)N2C(C(=O)O)=C(CSc3nnsc3C(C)(C)C)CS[C@H]12)c1csc(N)n1 [Example 6, (Z)-7-[[(2-Amino-4-thiazolyl)(methoxyimino)acetyl]amino]-3-[[[5-(1,1-dimethylethyl)-1,2,3-thiadiazol-4-yl]thio]methyl]-8-oxo-5-thia-1-azabicyclo[4.2.0]oct-2-ene-2-carboxylic acid] | 64 µg/mL (≈ 112 µM) | 64 µg/mL (≈ 112 µM) | 4 µg/mL (≈ 7.02 µM) | 2 µg/mL (≈ 3.51 µM) | 128 µg/mL (≈ 225 µM) |  | 256 µg/mL (≈ 449 µM) | 16 µg/mL (≈ 28.1 µM) | 8 µg/mL (≈ 14 µM) | 32 µg/mL (≈ 56.2 µM) | 2 µg/mL (≈ 3.51 µM) | 16 µg/mL (≈ 28.1 µM) | 0.5 µg/mL (≈ 0.878 µM) | 0.25 µg/mL (≈ 0.439 µM) | 0.5 µg/mL (≈ 0.878 µM) | 2 µg/mL (≈ 3.51 µM) | 4 µg/mL (≈ 7.02 µM) | 8 µg/mL (≈ 14 µM) | 2 µg/mL (≈ 3.51 µM) | 1 µg/mL (≈ 1.76 µM) | MIC [13]: 0.25 µg/mL (≈ 0.439 µM); MIC (Proteus rettgheri K 77-6): ≤ 0.12 µg/mL; MIC (Acinetobacter K 77-1): 32 µg/mL (≈ 56.2 µM); MIC [11]: 1 µg/mL (≈ 1.76 µM); MIC [12]: 1 µg/mL (≈ 1.76 µM); MIC [1]: 1 µg/mL (≈ 1.76 µM); MIC (Serratia TUL 78-15): 8 µg/mL (≈ 14 µM); MIC (Escherichia coli 311): 0.5 µg/mL (≈ 0.878 µM); MIC [5]: 5 µg/mL (≈ 8.78 µM); MIC (Enterococcus SM 77-15): 128 µg/mL (≈ 225 µM) |
